Data from patent publication US20230391781A1, “MALT1 MODULATORS AND USES THEREOF” (Rheos Medicines, Inc., priority 2020, published 2023).
In brackets after ≈: the same amount, converted by molar mass.

Tests used:
[1] = High Throughput Dialysis (HTD) Human Plasma Protein Binding Assay; type: in vitro ADME; settings: pooled human plasma, pH 7.4, equilibrium dialysis, 37° C., read-out: Human PPB (% Unbound)
Experimental: Human plasma protein binding of various compounds of formula (I) were evaluated using the equilibrium dialysis method described herein.
The dialysis membrane strips (HTD % a/b, catalog number 1101, HTDialysis LLC, Gales Ferry, CT, USA) were soaked in ultra-pure water at room temperature for approximately 1 hour. Each membrane strip containing 2 membranes was separated and soaked in 20:80 ethanol/water (v/v) for approximately 20 minutes, after which they were ready for use or were stored in the solution at 2-8° C. for up to a month. Prior to the experiment, the membrane was rinsed three times and soaked for 20 minutes in ultra-pure water.
On the day of experiment, the human plasma (BiolVT, catalog number […], sodium heparin or EDTA-K2 anticoagulant, multiple individuals pooled) was thawed by running under cold tap water and centrifuged at 3220 rpm for 5 minutes to remove any clots. The pH value of the resulting plasma was confirmed to be 7.0-8.0.
The test compounds and warfarin control (Stru Chem, catalog number SC-16139) were dissolved in dimethyl sulfoxide (DMSO) to obtain 10 mM stock solutions. DMSO working solutions were prepared at 400 μM. To prepare the loading matrix, the compound working solutions (5 μL) were added in a 1:200 ratio to blank human plasma (995 μL) and mixed thoroughly.
The time zero (T0) samples to be used for recovery determination were prepared as follows: 50 μL aliquots of loading matrix were transferred in triplicate to the sample collection plate. The samples were immediately matched with opposite blank buffer (basic solution (14.2 g/L Na2HPO4 and 8.77 g/L NaCl in deionized water) titrated with acidic solution (15.6 g/L NaH2PO4·2H2O and 8.77 g/L NaCl in deionized water) to pH 7.4±0.1) to obtain a final volume of 100 μL of 1:1 matrix/dialysis buffer (v/v) in each well. 500 μL stop solution (200 ng/mL tolbutamide and 200 ng/mL labetalol in acetonitrile) were added to these TO samples. They were then stored at 2-8° C. for further processing along with other post-dialysis samples.
To load the dialysis device (96-well equilibrium dialysis plate, model 96b, catalog number 1006. HTDialysis LLC, Gales Ferry, CT, USA), an aliquot of 150 μL of the loading matrix was transferred to the donor side of each dialysis well in triplicate, and 150 μL of the dialysis buffer was loaded to the receiver side of the well. The dialysis plate was placed in a humidified incubator at 37° C. with 5% CO2 on a shaking platform that rotated slowly (about 100 rpm) for 4 hours.
At the end of the dialysis, aliquots of 50 μL of the samples were taken from both the buffer side and the matrix side of the dialysis device. These samples were transferred into new 96-well plates (polypropylene, 2.2 mL/well, catalog number DWP-22-96-SQ-U-C-L. Apricot). Each sample was mixed with an equal volume of opposite blank matrix (buffer or matrix) to reach a final volume of 100 μL of 1:1 matrix/dialysis buffer (v/v) in each well. All samples were further processed by adding 500 μL of stop solution containing internal standards. The mixture was vortexed and centrifuged at 4000 rpm for about 20 minutes. An aliquot of 100 μL of supernatant of all the samples was then removed for LC-MS/MS analysis. Test compound concentrations in matrix and buffer samples were expressed as peak area ratios (PAR) of analyte/internal standard (no standard curve).
The single blank samples were prepared by transferring 50 μL of blank matrix to a 96 well plate (polypropylene. 2.2 mL/well, catalog number DWP-22-96-SQ-U-C-L, Apricot) and adding 50 μL of blank PBS buffer to each well. The blank plasma must match the species of plasma used in the plasma side of the well. Then the matrix-matched samples were further processed by adding 500 μL of stop solution containing internal standards, following the same sample processing method as the dialysis samples. […]

[2] = system: IL-2 in Jurkat (ATCC, clone E6.1) cells stimulated with anti-CD3/28/2; experiment: Jurkat IL-2 Assay; type: cell-based; settings: Homo sapiens; IL-2 inhibition, Jurkat cells, 30 min compound then anti-CD3/28/2 stimulation for 24 hours; mean value if tested more than once; read-out: IC50
Procedure, shortened: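 Jurkat E6.1 T cells in RPMI/10% FBS (below passage 25) were preincubated with a compound dose-response for 30 min, then stimulated with soluble anti-CD3/28/2 for 24 h. IL-2 in the supernatant was measured by MSD immunoassay and viability by CellTiter-Glo luminescence. IC50 came from a 4-parameter fit, reported as ranges, with the mean used where tested repeatedly.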

[3] = Thermodynamic Solubility (Ts) Assay in Fasted State Simulated Intestinal Fluid (FaSSIF); type: physicochemical; settings: thermodynamic from solid, FaSSIF pH 6.5, shake flask, 25° C., HPLC-UV
Experimental: The solubilities of various compounds of formula (I) were determined using a thermodynamic solubility assay. The thermodynamic solubility assay employed the shake flask method followed by HPLC-UV analysis. The following stepwise procedure was followed:
Samples of no less than 2.0 mg were weighed into the lower chambers of Whatman mini-uniprep vials (catalog number UN203NPUORG) and 450 μL of FaSSIF media (0.056% (w/v) lecithin, 0.161% (w/v) sodium taurocholate, 0.39% (w/v) monobasic potassium phosphate, 0.77% (w/v) potassium chloride, deionized H2O, pH 6.5) was added into each vial.
After the buffer was added, the filter pistons of the mini-uniprep vials were placed to the position of the liquid level to ensure the full contact of buffer and compound with the filter during the incubation.
The samples were then vortexed for 2 minutes, after which they were incubated at 25° C. with shaking (880 rpm) for 24 hours.
The samples were then centrifuged at 4000 rpm (20° C.) for 10 min.
The miniunipreps were then compressed to prepare filtrates, and the test concentration of the compound in the filtrate was determined using HPLC-UV (Waters XBridge C18, 4.6*100 mm column; mobile phase A: 0.1% TFA in H2O; mobile phase B: 0.1% TFA in acetonitrile). At least 5 UV standard solutions (e.g. amiodarone hydrochloride, carbamazepine, dexamethasone) were injected into the HPLC from low to high concentration subsequently followed by testing of the thermodynamic solubility supernatants in duplicate. The solubilities of the tested compounds are given in μg/mL.

full length MALT1 = full length MALT1 (Homo sapiens (Human), UniProt Q9UDY8); experiment: MALT1 Biochemical Assay; settings: 15 nM enzyme, 30 μM peptide substrate Ac-Leu-Arg-Ser-Arg-Rh110-dPro, 30 min pre-incubation, 60 min reaction; mean value if tested more than once
full length MALT1, sequence (Q9UDY8 whole entry): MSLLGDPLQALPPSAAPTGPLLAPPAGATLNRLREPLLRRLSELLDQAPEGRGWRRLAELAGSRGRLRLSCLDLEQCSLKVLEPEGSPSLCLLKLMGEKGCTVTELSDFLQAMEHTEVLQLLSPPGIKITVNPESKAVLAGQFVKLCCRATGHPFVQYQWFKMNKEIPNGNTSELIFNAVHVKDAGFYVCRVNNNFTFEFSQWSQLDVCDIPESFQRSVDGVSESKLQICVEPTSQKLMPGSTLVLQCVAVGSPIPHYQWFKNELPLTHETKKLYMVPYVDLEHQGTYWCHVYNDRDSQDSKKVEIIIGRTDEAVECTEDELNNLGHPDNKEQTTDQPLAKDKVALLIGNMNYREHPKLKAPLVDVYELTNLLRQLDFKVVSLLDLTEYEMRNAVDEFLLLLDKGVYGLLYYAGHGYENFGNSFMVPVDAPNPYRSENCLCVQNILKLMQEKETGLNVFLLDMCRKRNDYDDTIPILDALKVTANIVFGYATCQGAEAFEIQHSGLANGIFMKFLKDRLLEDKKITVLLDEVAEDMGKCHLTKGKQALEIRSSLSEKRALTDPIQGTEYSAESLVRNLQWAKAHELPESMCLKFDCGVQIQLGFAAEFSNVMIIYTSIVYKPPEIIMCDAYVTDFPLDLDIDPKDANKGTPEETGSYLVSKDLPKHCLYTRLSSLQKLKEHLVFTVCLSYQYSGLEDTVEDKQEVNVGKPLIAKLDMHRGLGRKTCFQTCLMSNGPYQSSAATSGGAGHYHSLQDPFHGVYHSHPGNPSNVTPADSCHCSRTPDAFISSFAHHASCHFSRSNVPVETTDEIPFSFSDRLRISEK
Procedure, shortened: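 Full-length human MALT1 was pre-incubated with compound for 30 min, then cleaved a fluorogenic peptide for 60 min in 50 mM Hepes pH 7.5 with 0.8 M sodium citrate and 1 mM DTT. The reaction was quenched with 10 mM iodoacetate and fluorescence was read at 485/520 nm. IC50 came from four-parameter logistic fits of percent inhibition.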

fraction unbound at 4 h, 2 µM [1] | IC50 [2] [nM] | solubility at 24 h [3] [µg/mL] | IC50 (full length MALT1) [nM] | SMILES
< 0.08 | 100 to 1000 | < 250 | < 100 | CO[C@@H](C)c1c(Nc2ccc([C@H](N(C)C(=O)C3CCN(S(C)(=O)=O)CC3)C(F)(F)F)cc2)cnc2nc(Cl)nn12 [Compound 3.4, N-[(1S)-1-[4-({2-chloro-7-[(1S)-1-methoxyethyl]-[1,2,4]triazolo[1,5-a]pyrimidin-6-yl}amino)phenyl]-2,2,2-trifluoroethyl]-1-methanesulfonyl-N-methylpiperidine-4-carboxamide]
0.08 to 0.2 | 100 to 1000 | < 250 | < 100 | CO[C@@H](C)c1c(Nc2ccc([C@H](N(C)C(=O)C3CCN(C(=O)C4CC4)CC3)C(F)(F)F)cc2)cnc2nc(Cl)nn12 [Compound 4.1, N—((S)-1-(4-((2-chloro-7-((S)-1-methoxyethyl)-[1,2,4]triazolo[1,5-a]pyrimidin-6-yl)amino)phenyl)-2,2,2-trifluoroethyl)-1-(cyclopropanecarbonyl)-N-methylpiperidine-4-carboxamide]
0.08 to 0.2 | > 1000 | > 1750 | 100 to 1000 | CO[C@@H](C)c1c(Nc2ccc([C@H](N(C)C(=O)[C@H]3CC[C@H](C(=O)O)CC3)C(F)(F)F)cc2)cnc2nc(Cl)nn12 [Compound 7.1, (1S,4r)-4-(((S)-1-(4-((2-chloro-7-((S)-1-methoxyethyl)-[1,2,4]triazolo[1,5-a]pyrimidin-6-yl)amino)phenyl)-2,2,2-trifluoroethyl)(methyl)carbamoyl)cyclohexane-1-carboxylic acid]
0.08 to 0.2 | 100 to 1000 | 250 to 1750 (≈ 430 to 3010 µM) | 100 to 1000 | CNC(=O)[C@H]1CC[C@H](C(=O)N(C)[C@@H](c2ccc(Nc3cnc4nc(Cl)nn4c3[C@H](C)OC)cc2)C(F)(F)F)CC1 [Compound 8.2, (1r,4S)—N1-((S)-1-(4-((2-chloro-7-((S)-1-methoxyethyl)-[1,2,4]triazolo[1,5-a]pyrimidin-6-yl)amino)phenyl)-2,2,2-trifluoroethyl)-N1,N4-dimethylcyclohexane-1,4-dicarboxamide]
< 0.08 | > 1000 | > 1750 | < 100 | CO[C@@H](C)c1c(Nc2ccc([C@H](N(C)C(=O)[C@H]3C[C@H](c4nnn[nH]4)C3)C(F)(F)F)cc2)cnc2nc(Cl)nn12 [Compound 9.1, (1r,3S)—N—((S)-1-(4-((2-chloro-7-((S)-1-methoxyethyl)-[1,2,4]triazolo[1,5-a]pyrimidin-6-yl)amino)phenyl)-2,2,2-trifluoroethyl)-N-methyl-3-(1H-tetrazol-5-yl)cyclobutane-1-carboxamide]

The next lines start with the molecule.

SMILES | fraction unbound at 4 h, 2 µM [1] | IC50 [2] [nM] | solubility at 24 h [3] [µg/mL] | IC50 (full length MALT1) [nM]
CO[C@@H](C)c1c(Nc2ccc([C@H](N(C)C(=O)C3CCN(C(C)=O)CC3)C(F)(F)F)cc2)cnc2nc(Cl)nn12 [Compound 3.1, 1-acetyl-N—((S)-1-(4-((2-chloro-7-((S)-1-methoxyethyl)-[1,2,4]triazolo[1,5-a]pyrimidin-6-yl)amino)phenyl)-2,2,2-trifluoroethyl)-N-methylpiperidine-4-carboxamide] | > 0.2 | 100 to 1000 | 250 to 1750 (≈ 440 to 3080 µM) | < 100
CO[C@@H](C)c1c(Nc2ccc([C@H](N(C)C(=O)C3CCN(C)CC3)C(F)(F)F)cc2)cnc2nc(Cl)nn12 [Compound 5.1, N—((S)-1-(4-((2-chloro-7-((S)-1-methoxyethyl)-[1,2,4]triazolo[1,5-a]pyrimidin-6-yl)amino)phenyl)-2,2,2-trifluoroethyl)-N,1-dimethylpiperidine-4-carboxamide] | > 0.2 | 100 to 1000 | > 1750 | 100 to 1000
CO[C@@H](C)c1c(Nc2ccc([C@H](N(C)C(=O)[C@H]3CC[C@H](C(=O)N(C)C)CC3)C(F)(F)F)cc2)cnc2nc(Cl)nn12 [Compound 8.3, (1r,4S)—N1-((S)-1-(4-((2-chloro-7-((S)-1-methoxyethyl)-[1,2,4]triazolo[1,5-a]pyrimidin-6-yl)amino)phenyl)-2,2,2-trifluoroethyl)-N1,N4,N4-trimethylcyclohexane-1,4-dicarboxamide] | 0.08 to 0.2 | 100 to 1000 | 250 to 1750 (≈ 419 to 2940 µM) | 100 to 1000
CO[C@H](C)c1c(Nc2ccc([C@H](N(C)C(=O)C3CCN(C(C)=O)CC3)C(F)(F)F)cc2)cnc2nc(Cl)nn12 [Compound 11.1, 1-acetyl-N—((S)-1-(4-((2-chloro-7-((R)-1-methoxyethyl)-[1,2,4]triazolo[1,5-a]pyrimidin-6-yl)amino)phenyl)-2,2,2-trifluoroethyl)-N-methylpiperidine-4-carboxamide] | 0.08 to 0.2 | 100 to 1000 | 250 to 1750 (≈ 440 to 3080 µM) | < 100
